Laboratory results taken from patent US6815450B2, “Axon regeneration with PKC inhibitors” (Children's Medical Center Corporation, priority 2002, dated 2004).
Counter-ions that a name gives are not always drawn. Residues, ends and D or L forms follow the SMILES beside them. *: point of attachment. Cbz = O=C(OCc1ccccc1)*; CH2F = FC*

Experiments:
protein kinase C = conditions: cited from earlier work
[1] = system: NG108 cells and CGNs transfected with Akt forms; assay: neurite outgrowth of Akt-transfected cells; format: cell-based, rat; set-up: effect on pro-growth effect of dominant negative Akt / cell survival / process extension of constitutively active Akt expressing NG108 cells: unit of the concentration uncertain
Source text: Having determined that the PI3K pathway is both activated and required in MAG signaling, we next examined whether Akt, a major downstream effector of PI3K in promoting cell survival (13, 17) and in determining the directionality of cell movement during chemotaxis (18), could account for the neurite inhibitory effect of MAG. To this end, we transfected NG108 cells with three versions of the Akt product—a constitutive active, a dominant negative and a wild type form (19), and compared their effects on neurite outgrowth.
Since Akt has been thought of as a positive regulator of neurite outgrowth (21), our results with over-expression of constitutively active Akt came as a surprise. […] However, expression of dominant negative Akt led to the death of the transfected CGNs, consistent with a critical role of Akt in promoting cell survival (13, 17 and 19). Thus, the neurite outgrowth response elicited by Akt activation differs in a cell type specific manner.
Growth cone responses can be converted from attraction to repulsion and vice versa through the modification of cellular cyclic nucleotide levels (12, 16, 23). […] As the PLCg pathway is activated by MAG and PKC is a major effector of PLCg (15), we assessed whether changes in PKC activity could affect the activity of different forms of Akt in NG-108 cells on the PDL substrate.

[2] = system: CGNs, DRG sensory neurons or NG108 cells on immobilized CNS myelin; assay: neurite outgrowth assay on CNS myelin substrate; format: cell-based, rat; conditions: for neurite outgrowth on immobilized CNS myelin: P7-9 rat CGNs and DRG sensory neurons
Method: (§1) To assess the functional relevance of the activation of the PI3K, MEK and PLC-g pathways, we utilized a standard neurite outgrowth assay in which NG108 cells or cerebellar granule neurons (CGN) from postnatal day 7-9 (P7-9) rats were grown on immobilized recombinant MAG or myelin (5-10, 16). Pharmacological inhibitors of the individual pathways—LY294002 and wortmannin for PI3K, U0126 for MEK, and U73122 for PLC-g, were then added to assess whether and to what extent these inhibitors could overcome the inhibitory activity of MAG or of myelin. […] As MEK has been previously shown to be required for axon growth induced by chronic exposure to neurotrophins (14), but not for growth cone turning in acute responses to NGF gradients (12), our results of abolishing MAG inhibition by an MEK inhibitor imply that the MEK pathway can be required only for neurite outgrowth in response to external cues.
Based on the modulation of neurite outgrowth by modulating PKC activity, we predicted that inhibiting PKC activity might abolish or convert the inhibitory responses of neurons to MAG and other myelin-associated inhibitors. […] Based on existing evidence for the functional interactions between the PKA and PKC pathways (24), we conclude that both PKA and PKC act through parallel mechanisms in affecting neurite outgrowth. Although many PKC isoforms are expressed in the nervous system (25), our observations with phorbol ester and selective PKC inhibitors indicate the involvement of at least classical PKC isoforms whose activation is dependent on diacylglycerol (DAG) and calcium (24).
Screening for compounds that allow neurite outgrowth from postnatal day 7-9 rat cerebellar granule neurons (CGNs) on CNS myelin substrates, we identified several broad-specificity PKC inhibitors from a small molecule libraries. Based on their structure and substrate requirements, PKC isoforms can be divided into three classes: the Ca++ and second messenger diacylglycerol (DAG)-sensitive conventional PKCs (-α, -β, and -γ), the Ca++-independent but DAG-dependent novel PKCs (-δ, -ε, -η, -θ, and -μ), and the Ca++- and DAG-insensitive atypical PKCs (-ζ and -λ). We first examined PKC inhibitors with a higher specificity for the conventional class of PKC isotypes for their ability to promote neurite outgrowth on CNS myelin. These inhibitors included Chelerythrine, Calphostin, Bisindoleylmaleimide I, and Gö6976. Dose response experiments (in the range of 10 nM to 10 uM) were carried out for each PKC inhibitor.

[3] = system: NG108 cells or cerebellar granule neurons (CGN) on immobilized recombinant MAG; assay: neurite outgrowth assay on immobilized recombinant MAG; format: cell-based, rat
Method: as §1

NG108 cells and CGNs = assay: toxicity to cultured neuronal cells; format: cell-based, rat; conditions: even at 100 nM
Method: as §1

[4] = system: neurons on CSPG substrate; assay: neurite outgrowth on CSPG substrate; format: cell-based, rat
Source text: We examined whether PKC is involved in the inhibitory activity of CSPG, the other major inhibitory activity associated with glial scars in the adult CNS.

[5] = system: CGNs, DRG sensory neurons or NG108 cells on immobilized CNS myelin; conditions: previously shown; cited from earlier work
[6] = system: CGNs on MAG, Nogo-A and OMgp; assay: neurite outgrowth on individual myelin inhibitors; format: cell-based, rat
Method: […] Based on their structure and substrate requirements, PKC isoforms can be divided into three classes: the Ca++ and second messenger diacylglycerol (DAG)-sensitive conventional PKCs (-α, -β, and -γ), the Ca++-independent but DAG-dependent novel PKCs (-δ, -ε, -η, -θ, and -μ), and the Ca++- and DAG-insensitive atypical PKCs (-ζ and -λ). […] These inhibitors included Chelerythrine, Calphostin, Bisindoleylmaleimide I, and Gö6976. Dose response experiments (in the range of 10 nM to 10 uM) were carried out for each PKC inhibitor.

[7] = NG-108 cells, 10 (unit uncertain)

## CC1CNCCN1S(=O)(=O)c1cccc2cnccc12 (racemic) [compound 542, (+−)-1-(5-Isoquinolinesulfonyl)-2-methylpiperazine dihydrochloride]
Protein kinase C
  IC50: 6 µM

## CCCCCCCCCCCCCC(=O)O[C@@H]1[C@@H](C)[C@@]2(O)[C@@H](C=C(CO)C[C@]3(O)C(=O)C(C)=C[C@@H]23)[C@@H]2C(C)(C)[C@]12OC(C)=O [PMA, phorbol myristate-13-acetate]
[1]
  neurite outgrowth from untransfected cells and wild type Akt transfected cells: did not result in significant alterations in neurite outgrowth
[1]; CGNs
  neurite outgrowth promoting activity of active Akt in CGNs: abolished the neurite outgrowth promoting activity of active Akt
[1]; PDL substrate, 100 nM
  neurite outgrowth from NG108 cells expressing dominant negative Akt: resulted in inhibition of neurite outgrowth

## Nc1nc2c(nc(Br)n2[C@@H]2O[C@@H]3COP(O)(=S)O[C@H]3[C@H]2O)c(=O)[nH]1 (some centres unmarked) [Rp-8-Br-cGMPS]
[2]; P7-9 rat CGNs
  neurite outgrowth on CNS myelin substrate: failed to overcome the inhibitory effects of CNS myelin

## N#CC(=C(/N)Sc1ccccc1N)/C(C#N)=C(\N)Sc1ccccc1N [U0126]
[3]
  neurite outgrowth on the MAG substrate: promoted neurite outgrowth

## COc1ccc2c(c1)CC[C@@H]1[C@@H]2CC[C@]2(C)[C@@H](NCCCCCCN3C(=O)C=CC3=O)CC[C@@H]12 [U73122]
NG108 cells and CGNs
  toxicity to cells: appeared toxic

## C[C@@H](N)[C@H]1CC[C@H](C(=O)Nc2ccncc2)CC1 [Y-27632]
[4]
  effect on CSPG substrate relative to chondroitinase ABC: stronger effects than chondroitinase ABC
  neurite outgrowth from neurons on CSPG substrate: allowed the cultured neurons to overcome the inhibitory activity of CSPG
[5]
  block of the inhibitory activity of CNS myelin and its components: block the inhibitory activity of CNS myelin and its components

## CC(NC(=O)C(NC(=O)OCc1ccccc1)C(C)C)C(=O)NC(CC(=O)O)C(=O)CF (stereo not drawn) [ZVAD] (Cbz-Val-Ala-Asp-CH2F; configuration not given here)
[1]; [7]
  cell survival: enhancing cell survival
  effect on pro-growth effect of dominant negative Akt: did not affect the pro-growth effect of the dominant negative form of Akt

## O=S(=O)(c1cccc2cnccc12)N1CCNCC1 [compound 543, 1-(5-Isoquinolinesulfonyl)piperazine]
Protein kinase C
  IC50: 6 µM

## Nc1ncnc2c1ncn2[C@@H]1O[C@@H]2COP(O)(=S)O[C@H]2[C@H]1O (some centres unmarked) [sp-cAMP]
[2]
  neurite outgrowth on immobilized CNS myelin: stimulated neurite outgrowth

## bisindolylmaleimide [GFX]
[1]
  neurite outgrowth from untransfected cells and wild type Akt transfected cells: did not result in significant alterations in neurite outgrowth
[1]; PDL substrate, 5 (unit uncertain)
  process extension of constitutively active Akt expressing NG108 cells: the majority of constitutively active Akt expressing NG108 cells extended processes
[2]
  neurite outgrowth on immobilized CNS myelin: profoundly affected neurite outgrowth by enhancing both the number of neurite-bearing cells and the length of neurites

## calphostin C
[6]
  neurite outgrowth inhibition induced by MAG, Nogo-A and OMgp: efficiently overcame neurite outgrowth inhibition
[2]
  neurite outgrowth on immobilized CNS myelin: profoundly affected neurite outgrowth by enhancing both the number of neurite-bearing cells and the length of neurites
[2]; P7-9 rat CGNs, 100 nM
  neurite outgrowth on a CNS myelin substrate: profoundly mitigated outgrowth inhibition and promoted significant neurite outgrowth
